Assay [1] concerns the target Alpha-glucosidase (Saccharomyces cerevisiae S288c) (UniProt P53341+P38158+P07265). Nature of the assay: Inhibition of Saccharomyces cerevisiae alpha-glucosidase using p-NP-alpha-G as substrate at 100 uM by spectroscopic analysis. It is filed as protein assay.
Assay [2] has as its system Prunus dulcis. The experiment in a line: Inhibition of almond beta-glucosidase using p-NP-beta-G as substrate at 100 uM by spectroscopic analysis.
Assay [3] concerns the target T1, Alpha-glucosidase (Saccharomyces cerevisiae S288c, UniProt P53341+P38158+P07265). The experiment in a line: Inhibition of Saccharomyces cerevisiae alpha-glucosidase using pNPG as preincubated for 15 mins followed by substrate addition and measured after 30 mins by spectroscopic analysis.
Assay [4] deals with T1, Alpha-glucosidase. Nature of the assay: Inhibition of Saccharomyces cerevisiae alpha-glucosidase using pNPG as preincubated for 10 mins followed by substrate addition and measured after 30 mins by spectroscopic analysis. It is filed as protein assay.
Assay [5] deals with T1, Alpha-glucosidase. The experiment in a line: Inhibition of Saccharomyces cerevisiae alpha-glucosidase assessed as release of p-nitrophenol using pNPG as substrate preincubated for 15 mins followed by substrate addition and measured after 15 mins by spectrophotometric analysis. It is filed as protein assay.
Assay [6] can be described thus: Inhibition of rice alpha-glucosidase using p-nitrophenyl-alpha-D-glucopyranoside as substrate preincubated for 15 mins followed by substrate addition and measured after 90 mins by spectroscopic analysis.
For assay [7], the species on record is Rattus norvegicus. Nature of the assay: Inhibition of rat intestine alpha-glucosidase using MUG as substrate at 65 uM preincubated for 15 mins followed by substrate addition and measured after 30 mins by fluorescence microplate reader analysis. To be noted: time 45.0 min. It is filed as tissue-based.
For assay [8], the target named is T2, Alpha glucosidase (Homo sapiens, UniProt O43451+P10253+P14410+Q2M2H8). The experiment in a line: Inhibition of alpha-glucosidase (unknown origin) at 40 uM. It is filed as protein assay.
Assay [9] can be described thus: Inhibition of rat intestine alpha-glucosidase using p-nitrophenyl-alpha-D-glucopyranoside as substrate preincubated for 10 mins followed by substrate addition and measured after 5 mins by spectroscopic analysis. It is filed as tissue-based.
Assay [10] addresses T1, Alpha-glucosidase. The experiment in a line: Inhibition of Saccharomyces cerevisiae alpha-glucosidase assessed as release of p-nitrophenol using pNPG as substrate preincubated for 15 mins followed by substrate addition and measured after 15 mins by plate reader analysis. It counts as protein assay.
The target of assay [11] is T1, Alpha-glucosidase. The experiment in a line: Inhibition of baker's yeast alpha-glucosidase using PNP as substrate preincubated for 30 mins followed by […] addition and measured after 1 mins by UV spectrophotometric analysis. It is filed as protein assay.
The species named for assay [12] is Rattus norvegicus. Nature of the assay: Inhibition of rat intestine alpha-glucosidase using MUG as substrate at 100 uM preincubated for 15 mins followed by substrate addition and measured after 30 mins by fluorescence microplate reader analysis. It is filed as tissue-based. As to conditions: time 45.0 min.
Assay [13] in a line: Inhibition of rat jejunum isomaltase. It counts as tissue-based.
Assay [14] is filed under the species Rattus norvegicus. The experiment in a line: Inhibition of rat jejunum maltase at 300 ug/ml. It counts as tissue-based. As to conditions: dose 300.0 µg/ml.
Assay [15] in a line: Inhibition of rat jejunum sucrase. It is filed as tissue-based.
Assay [16] addresses T2, Alpha glucosidase. The experiment in a line: Inhibition of alpha-glucosidase (unknown origin) using PNPG as substrate preincubated for 15 mins followed by substrate addition by microplate reader assay. It counts as protein assay.

The structures appear in SMILES notation. Converted amounts (≈) assume the structure as drawn.

Usually inhibition stands for the drop in the measured response relative to a control, in per cent. A high value points to a strong effect. For the compound `OC[C@H]1NC[C@H](O)[C@@H](O)[C@@H]1O`, the inhibition in assay [1] amounted to 79.6%; in assay [2] it was 81.2%.

For orientation: IC50 means the midpoint of a concentration-inhibition curve. In the case of `COc1cc(O)c2c(=O)c3c(O)c(O[C@@H]4OC[C@@H](O)[C@H](O)[C@H]4O[C@@H]4O[C@@H](C)[C@H](O)[C@@H](O)[C@H]4O)ccc3oc2c1`, the IC50 in assay [3] came to 765 µM; in [4], 36 µM.

For the compound `COC(=O)c1c(O)c(O)cc2oc3c(Cl)c(C)c(Cl)c(O)c3c(=O)c12`, in assay [5], the half-maximal inhibitory concentration (IC50) stood at 40 µM.

Turning to `C[C@H]1O[C@H](O[C@H]2[C@H](O)[C@@H](O)[C@@H](O[C@H]3[C@H](O)[C@@H](O)C(O)O[C@@H]3CO)O[C@@H]2CO)[C@H](O)[C@@H](O)[C@@H]1N[C@H]1C=C(CO)[C@@H](O)[C@H](O)[C@H]1O` (some centres undefined) [ACARBOSE], the half-inhibitory concentration (IC50) worked out at 2.39 µg/mL (≈ 3.7 µM) in assay [6] and 1820 µM in [9]. Also, the results for the inhibition in assay [7] and in assay [8] were 50% and 5.4%, respectively.

As to `O=c1c2cc(O)ccc2oc2cc(O)cc(O)c12`, the concentration for half-maximal inhibition (IC50) came out at 3.2 µg/mL (≈ 13.1 µM) in assay [10] and 14.7 µM in assay [11].

With `O=c1c2cc(O)c(O)cc2oc2cc(O)c([C@H]3O[C@@H](CO)[C@H](O)[C@@H](O)[C@@H]3O)c(O)c12`, the IC50 in [6] came to 96.1 µg/mL (≈ 228 µM); in assay [9], 52200 µM; in assay [13] it was 216 µg/mL (≈ 511 µM); in assay [15], 87 µg/mL (≈ 206 µM). Besides, the inhibition in assay [12] worked out at 53%; in assay [14] it was 42%.

Turning to `O=c1c2cc(O)c(O)cc2oc2c([C@H]3O[C@@H](CO)[C@H](O)[C@@H](O)[C@@H]3O)c(O)cc(O)c12`, the half-maximal inhibitory concentration (IC50) in assay [16] came to 76.98 µg/mL (≈ 182 µM). In addition, in assay [12], the inhibition stood at 50%.

These data come from ChEMBL document CHEMBL5244222, “A comprehensive review on xanthone derivatives as α-glucosidase inhibitors” (Eur J Med Chem, 2018).
